Test results: patent US20140350273A1, “PEDIATRIC USES OF CABAZITAXEL” (AVENTIS PHARMA S.A., priority 2012, published 2014)
Like-named read-outs stand apart in the source and are kept apart here.

Tested on: human Ewing's sarcoma TC-71
Type: in vivo
Settings: for Average body weight change in % per mouse at nadir / Biological interpretation / Drug death / Regressions Complete / Regressions Partial / Tumor free survivors at day 120 / day of nadir / ΔT/ΔC in % (day 21): 16
Procedure: This efficacy may be quantified, for example, as changes in tumor volume for each treated (T) and control (C) group, which are calculated for each animal and each day by subtracting the tumor volume on the day of first treatment (staging day) from the tumor volume on the specified observation day. This allows calculating the tumor growth inhibition: ΔT/ΔC=(median delta T/median delta C)×100. Individual tumor volume changes from baseline are thereafter analyzed by a non-parametric two-way ANOVA-TYPE (with factors: group and repeated days) followed by a post-hoc contrasts analysis, with Bonferroni-Holm adjustment for multiplicity, comparing all treated groups to the control group. […] A probability less than 5% (p<0.05) was considered as significant.
Based on the National Cancer Institute (NCl) standards, a ΔT/ΔC≦40% is the minimal level required to declare activity.
The tumor doubling time (in days; Td) was estimated from the plot of the log linear growth of the control group tumors in exponential growth (100 to 1000 mm^3 range) [T. H. Corbett et al., Cancer, 40: 2660-2680 (1977); F. M. Schabel et al., Cancer Drug Development, Part B, Methods in Cancer Research, 17: 3-51, New York, Academic Press Inc. (1979)].
This efficacy may also be quantified by the number of tumor regressions observed after therapy. Individual mice reporting a tumor volume ≦50% of the Day 0 measurement for two consecutive measurements over a seven day period were considered partial responders (PR). Individual mice lacking palpable tumors (<4×4 mm^2 for two consecutive measurements over a seven day period) were classified as complete responders (CR); a CR that persisted until study completion was considered a tumor-free survivor (TFS).
The animals subjected to the experiment are subcutaneously grafted unilaterally with approximately 30 mg of a tumor fragment on day 0. The animals are implanted with a human tumor xenografted in immunocompromized mice. Several days post tumor implantation, mice are randomized according to their body weight to the different groups of treatments and controls. The animals are observed every day. […] The groups are then weighed once or twice a week until the end of the trial.
The tumors are measured 1 to 5 times a week, depending on the tumor doubling time, until the tumor reaches approximately 1,000 mm^3, or until the animal dies (if this occurs before the tumor reaches 1,000 mm^3). The animals are necropsied immediately after euthanasia or death.
The selected tumor model was a human Ewing's sarcoma TC-71, xenografted in SCID mice [Whang-Peng J, et al. Cancer Genet Cytogenet. 1986 Apr. 1; 21(3):185208].
Treatment solutions were prepared first by mixing 1 volume of ethanolic stock solution and 1 volume of polysorbate 80, then by adding 18 volumes of glucose 5% in water.

[1] = 3.5 mg/kg per injection (total 7.0) IV days 12
[2] = 5.6 mg/kg per injection (total 11.2) IV days 12
[3] = 5.6 mg/kg per injection (total 11.2) IV days 12, listed as CABAZITAXEL
[4] = 9.0 mg/kg per injection (total 18) IV days 12
[5] = 9.0 mg/kg per injection (total 18) IV days 12, listed as CABAZITAXEL
[6] = 14.5 mg/kg per injection (total 29) IV days 12
[7] = 14.5 mg/kg per injection (total 29) IV days 12, listed as CABAZITAXEL
[8] = 3.5 mg/kg per injection (total 7.0) IV days 12, listed as DOCETAXEL
[9] = 3.5 mg/kg per injection (total 7.0) IV days 12, listed as docetaxel
[10] = 9.0 mg/kg per injection (total 18) IV days 12, listed as DOCETAXEL
[11] = 9.0 mg/kg per injection (total 18) IV days 12, listed as docetaxel
[12] = 14.5 mg/kg per injection (total 29) IV days 12, listed as DOCETAXEL

## CO[C@H]1C(=O)[C@]2(C)[C@@H](OC)C[C@H]3OC[C@@]3(OC(C)=O)[C@H]2[C@H](OC(=O)c2ccccc2)[C@]2(O)C[C@H](OC(=O)[C@H](O)[C@@H](NC(=O)OC(C)(C)C)c3ccccc3)C(C)=C1C2(C)C [Cabazitaxel, 4α-acetoxy-2α-benzoyloxy-5β,20-epoxy-1β-hydroxy-7β,10β-dimethoxy-9-oxo-11-taxen-13α-yl (2R,3S)-3-tert-butoxycarbonyl-amino-2-hydroxy-3-phenylpropionate]
[1]
  Average body weight change in % per mouse at nadir: −2.3%
  Biological interpretation: active
  Drug death: 0/7
  Regressions Complete: 0/7
  Regressions Partial: 0/7
  Tumor free survivors at day 120: 0/7
  day of nadir: 21 days
  ΔT/ΔC in % (day 21): 27%
3.5 mg/kg per injection (total 7.0) IV days 12, listed as CABAZITAXEL
  Biological interpretation: Active
[2]
  Average body weight change in % per mouse at nadir: −7.0%
  Drug death: 0/7
  Regressions Complete: 0/7
  Regressions Partial: 6/7
  Tumor free survivors at day 120: 0/7
  day of nadir: 18 days
[3]
  Biological interpretation: Highly Active
  ΔT/ΔC in % (day 21): <0%
5.6 mg/kg per injection (total 11.2) IV days 12, listed as cabazitaxel
  Biological interpretation: highly active
5.6 mg/kg, day 26
  Tumor volume changes from baseline: Median (nMad): −162 (65.2)
[4]
  Average body weight change in % per mouse at nadir: −7.0%
  Drug death: 0/7
  Regressions Complete: 6/7
  Regressions Partial: 7/7
  Tumor free survivors at day 120: 6/7
  day of nadir: 18 days
[5]
  Biological interpretation: Highly Active
  ΔT/ΔC in % (day 21): <0%
9.0 mg/kg per injection (total 18) IV days 12, listed as cabazitaxel
  Biological interpretation: highly active
9 mg/kg, day 26
  Tumor volume changes from baseline: Median (nMad): −196 (51.9)
9 mg/kg, day 28
  Tumor volume changes from baseline: Median (nMad): −196 (50.4)
9 mg/kg, day 30
  Tumor volume changes from baseline: Median (nMad): −196 (50.4)
9 mg/kg, day 34
  Tumor volume changes from baseline: Median (nMad): −196 (72.6)
[6]
  Average body weight change in % per mouse at nadir: −9.0%
  Drug death: 0/7
  Regressions Complete: 7/7
  Regressions Partial: 7/7
  Tumor free survivors at day 120: 6/7
  day of nadir: 23 days
[7]
  Biological interpretation: Highly Active
  ΔT/ΔC in % (day 21): <0%
14.5 mg/kg per injection (total 29) IV days 12, listed as cabazitaxel
  Biological interpretation: highly active
14.5 mg/kg, day 26
  Tumor volume changes from baseline: Median (nMad): −184 (43)
14.5 mg/kg, day 28
  Tumor volume changes from baseline: Median (nMad): −194 (47.4)
14.5 mg/kg, day 30
  Tumor volume changes from baseline: Median (nMad): −198 (53.4)
14.5 mg/kg, day 34
  Tumor volume changes from baseline: Median (nMad): −198 (53.4)
14.5 mg/kg, day 36
  Tumor volume changes from baseline: Median (nMad): −180 (53.4)
14.5 mg/kg, day 40
  Tumor volume changes from baseline: Median (nMad): −180 (53.4)
Conclusion of example 2
  antitumor activity compared with docetaxel: more active than docetaxel

## CC(=O)O[C@@]12CO[C@@H]1C[C@H](O)[C@@]1(C)C(=O)[C@H](O)C3=C(C)[C@@H](OC(=O)[C@H](O)[C@@H](NC(=O)OC(C)(C)C)c4ccccc4)C[C@@](O)([C@@H](OC(=O)c4ccccc4)[C@H]21)C3(C)C [Docetaxel, docetaxel]
[1]
  Average body weight change in % per mouse at nadir: −1.8%
  Drug death: 0/7
  Regressions Complete: 0/7
  Regressions Partial: 0/7
  Tumor free survivors at day 120: 0/7
  day of nadir: 13 days
[8]
  Biological interpretation: Inactive
  ΔT/ΔC in % (day 21): 77%
[9]
  Biological interpretation: inactive
  ΔT/ΔC in % (day 21): > 40%
3.5 mg/kg, day 19
  Tumor volume changes from baseline: Median (nMad): 629
3.5 mg/kg, day 21
  Tumor volume changes from baseline: Median (nMad): 1044
[2]
  Average body weight change in % per mouse at nadir: −13.7%
  Drug death: 0/7
  Regressions Complete: 0/7
  Regressions Partial: 0/7
  Tumor free survivors at day 120: 0/7
  day of nadir: 22 days
  ΔT/ΔC in % (day 21): 31%
5.6 mg/kg per injection (total 11.2) IV days 12, listed as DOCETAXEL
  Biological interpretation: Active
5.6 mg/kg per injection (total 11.2) IV days 12, listed as docetaxel
  Biological interpretation: active
5.6 mg/kg, day 19
  Tumor volume changes from baseline: Median (nMad): 371
5.6 mg/kg, day 21
  Tumor volume changes from baseline: Median (nMad): 416
5.6 mg/kg, day 26
  Tumor volume changes from baseline: Median (nMad): 1022.5
[4]
  Average body weight change in % per mouse at nadir: −10.8%
  Drug death: 0/7
  Regressions Complete: 0/7
  Tumor free survivors at day 120: 0/7
  day of nadir: 23 days
[10]
  Biological interpretation: Highly Active
  Regressions Partial: 2/7
  ΔT/ΔC in % (day 21): <0%
[11]
  Biological interpretation: highly active
  Regressions Partial: 5/7
9 mg/kg, day 19
  Tumor volume changes from baseline: Median (nMad): 139
9 mg/kg, day 21
  Tumor volume changes from baseline: Median (nMad): −36
9 mg/kg, day 26
  Tumor volume changes from baseline: Median (nMad): 158
9 mg/kg, day 30
  Tumor volume changes from baseline: Median (nMad): 406 (252)
9 mg/kg, day 34
  Tumor volume changes from baseline: Median (nMad): 867 (209)
[6]
  Average body weight change in % per mouse at nadir: −12.4%
  Drug death: 0/7
  Regressions Complete: 2/7
  Regressions Partial: 6/7
  Tumor free survivors at day 120: 1/7
  day of nadir: 23 days
[12]
  Biological interpretation: Highly Active
  ΔT/ΔC in % (day 21): <0%
14.5 mg/kg per injection (total 29) IV days 12, listed as docetaxel
  Biological interpretation: highly active
14.5 mg/kg, day 16
  Tumor volume changes from baseline: Median (nMad): 154
14.5 mg/kg, day 19
  Tumor volume changes from baseline: Median (nMad): −72
14.5 mg/kg, day 21
  Tumor volume changes from baseline: Median (nMad): −130
14.5 mg/kg, day 26
  Tumor volume changes from baseline: Median (nMad): −130
14.5 mg/kg, day 28
  Tumor volume changes from baseline: Median (nMad): −144
14.5 mg/kg, day 30
  Tumor volume changes from baseline: Median (nMad): −126
14.5 mg/kg, day 34
  Tumor volume changes from baseline: Median (nMad): −49
14.5 mg/kg, day 36
  Tumor volume changes from baseline: Median (nMad): 75 (330.6)
14.5 mg/kg, day 40
  Tumor volume changes from baseline: Median (nMad): 763
